Data taken from patent US8765684B2, “Solid materials of {[(2S,5R,8S,11S)-5-benzyl-11-(3-guanidino-propyl)-8-isopropyl-7-methyl-3,6,9,12,15-pentaoxo-1,4,7,10,13-pentaaza-cyclopentadec-2-yl]-acetic acid} and methods for obtaining them” (Merck Patent GmbH, priority 2009, dated 2014).

Format: physicochemical
Conditions: 25° C., listed as S2
Source text: Preferably, the anhydrates or ansolvates according to the invention and especially the crystalline form A1 can be characterised, alternatively or additionally, by dynamic vapour sorption experiments. The results can be obtained by standard techniques as described in Rolf Hilfiker, ‘Polymorphism in the Pharmaceutical Industry’, Wiley-VCH. Weinheim 2006 (Chapter 9: Water Vapour Sorption, and references therein). […] Eur. criteria.
Preferably, the tetrasolvates according to the invention, more preferably the tetrahydrates according to the invention and especially the crystalline form S3 can be characterised, alternatively or additionally, by dynamic vapour sorption experiments. The results can be obtained by standard techniques as described in Rolf Hilfiker, ‘Polymorphism in the Pharmaceutical Industry’, Wiley-VCH. Weinheim 2006 (Chapter 9: Water Vapour Sorption, and references therein).
Dynamic Vapor Sorption measurements are preferably obtained on a SMS DVS Intrinsic system. The results are preferably obtained by standard techniques as described by Rolf Hilfiker “Polymorphism in the Pharmaceutical Industry” Wiley-VCH Weinheim 2006 (Chapter 9: Water Vapour Sorption, and references therein.) Approx. 2-10 mg of samples are preferably weighed into an Aluminium 100 μL pan and placed in the sample incubator of the DVS instrument with microbalance. A nitrogen overall flow rate of 200 mL/min (combined dry and humid stream) is preferably used for humidification. Water vapor sorption isotherms are preferably acquired at 25° C. in the range 0% relative humidity to 98% relative humidity mostly with 10% relative humidity steps. For all relative humidity steps, an equilibrium condition of dm/dt≦0.0005 wt %/min are preferably used, with a minimum relative humidity step time of 10 minutes and a maximum relative humidity step time of 360 minutes which is preferably used as a timeout if the dm/dt criterai mentioned above is not been reached.
A SMS DVS I system is used for the dynamic vapour experiments regarding crystalline form S3. The results have been obtained by standard techniques as described in Rolf Hilfiker, ‘Polymorphism in the Pharmaceutical Industry’, Wiley-VCH. Weinheim 2006 (Chapter 9: Water Vapour Sorption, and references therein). […] During the water adsorption cycle there is shown an assembly of water molecules (ca. 10 wt%) in the lattice at elevated rh. In the second desorption cycle there is a loss of this amount of water.
(§1) A SMS DVS Intrinsic is used for the dynamic vapour experiments. The results are obtained by standard techniques as described in Rolf Hilfiker, ‘Polymorphism in the Pharmaceutical Industry’, Wiley-VCH. Weinheim 2006 (Chapter 9: Water Vapour Sorption, and references therein). […] Upon water vapour adsorption, an assembly of water molecules in the lattice is observed, with a maximum weight gain of approx. 8 wt % at elevated rh. In the second desorption cycle a total mass loss of approx. 9.9 wt % is observed. For a Cilengitide Dihydrate Di-Methanolate, the calculated Methanol content equals 9.3 wt %.
as §1, with “6.4” for “8”, “9.2” for “9.9”, “Di-Ethanolate,” for “Di-Methanolate,”, “Ethanol” for “Methanol”, “12.5” for “9.3”

## cyclo-(Arg-Gly-Asp-DPhe-NMe-Val) [crystalline form S2]
Elevated rh
  Maximum weight gain upon water vapour adsorption: approx. 6.4 wt %
Water vapour sorption
  Mass loss in the first desorption cycle: approx. 6.5 wt %
  Total mass loss in the second desorption cycle: approx. 9.2 wt %
